What was measured:
[1] = Lipophilicity: transfer potential at ITIES (water/1,6-dichlorohexane) by DPV; type: physicochemical; conditions: aqueous phase C=0.32 mM to 1,6-dichlorohexane, physiological pH
Description: In an embodiment, and as an example, the AntiOxBEN1 and AntiOxBEN2 lipophilic properties were evaluated using differential pulse voltammetry (DPV) at physiological pH. The used technique is often used to mimic the transfer of ionic drugs through biological membranes as the process occurs at the interface between two immiscible electrolyte solutions (ITIES). The transfer potential (Etr) at which the ionic drug, initially present in the aqueous phase (C=0.32 mM), is transferred to 1,6-dichlorohexane (DCH) phase is measured by differential pulse voltammetry (DPV). In the ITIES model, the transfer potential (Etr) becomes less positive with the increasing of the drug lipophilic character.
In an embodiment, the electrochemical analytical data was obtained using a computer controlled potentiostat Autolab PGSTAT302N (Metrohm Autolab, Utrecht, Netherlands). Generally, cyclic voltammetry (CV) data was acquired at a scan rate of 50 mVs^−1. Differential pulse voltammetry (DPV) results were acquired at a step potential of 4 mV, pulse amplitude of 50 mV and scan rate of 8 mVs^−1. The electrochemical signals were monitored by the General Purpose Electrochemical System (GPES) version 4.9, software package. […]

[2] = Redox potential by differential pulse and cyclic voltammetry, glassy carbon electrode; type: physicochemical; conditions: physiological pH 7.4
Description: In an embodiment, the oxidative behaviour of the parent antioxidants (protocatechuic and gallic acids) and AntiOxBENs was evaluated at physiological pH 7.4, by differential pulse and cyclic voltammetry, using a glassy carbon working electrode. […] For pyrogallol derivatives (gallic acid, AntiOxBEN2, AntiOxBEN3), a significant decrease in redox potentials was observed (Ep=0.163-0.168 V) (Table 1).
In an embodiment, the electrochemical analytical data was obtained using a computer controlled potentiostat Autolab PGSTAT302N (Metrohm Autolab, Utrecht, Netherlands). Generally, cyclic voltammetry (CV) data was acquired at a scan rate of 50 mVs^−1. Differential pulse voltammetry (DPV) results were acquired at a step potential of 4 mV, pulse amplitude of 50 mV and scan rate of 8 mVs^−1. The electrochemical signals were monitored by the General Purpose Electrochemical System (GPES) version 4.9, software package. All electrochemical experiments were performed at room temperature in an electrochemical cell that was placed in a Faraday cage in order to minimize the contribution of background noise to the analytical signal.
In an embodiment, the process of evaluation of AntiOxBENs redox properties was conducted as follows: stock solutions of each compound (10 mM) were prepared by dissolving the appropriate amount in ethanol. The voltammetric working solutions were prepared in the electrochemical cell, at a final concentration of 0.1 mM. The […] supporting electrolyte was prepared by diluting 6.2 mL of 0.2 M dipotassium hydrogen phosphate and 43.8 mL of 0.2 M potassium dihydrogen phosphate to 100 mL. Voltammetric data was acquired in a three-electrode system consisting of a glassy carbon electrode (GCE, d=2 mm) as working electrode, a counter electrode of platinum wire and a saturated Ag/AgCl reference electrode. In an embodiment, the evaluation of AntiOxBENs lipophilic properties was performed as follows: the electrochemical cell was a four-electrode system with arrays of micro liquid-liquid interfaces (μITIES) containing two Ag/AgCl reference electrodes and two counter electrodes of Pt, one in each phase. The microporous membrane was sealed with a fluorosilicone sealant (Dow Corning 730) onto a glass cylinder which was filled with 4.0 mL of the aqueous phase, where the aliquots of AntiOxBENs solutions were added. The membrane was then immersed into the organic phase contained in the cell. The organic phase reference solution (a 2 mM BTPPACI+2 mM NaCl aqueous solution) was mechanically stabilized The aqueous supporting electrolyte solution was a Tris-HCl buffer 10 mM pH 7.0.

[3] = test system: rat liver mitochondria (RLM); assay: Mitochondrial transmembrane electric potential (safranine fluorescence); type: biochemical
Description: In an embodiment, and as an example, the toxicity effects of some AntiOxBENs and MitoQ on the mitochondrial bioenergetics, namely on RLM Δψ and respiration parameters, were measured. The Δψ represents the main component of the electrochemical gradient generated by mitochondrial respiration and accounts for more than 90% of the total available energy. For mitochondrial respiration assays, glutamate/malate (for complex I) and succinate (for complex II) were used as substrates. In addition, the mitochondrial oxidative phosphorylation coupling index, known as respiratory control ratio (RCR, state 3/state 4 respiration) and ADP/O index (the coupling between ATP synthesis and oxygen consumption) were also calculated. AntiOxBENs and MitoQ were tested at antioxidant-relevant concentrations, with 10 μM being the highest concentration.
In an embodiment, the evaluation of AntiOxBENs effect on mitochondrial transmembrane electric potential (Δψ) was performed as follows: the mitochondrial transmembrane electric potential (Δψ) was estimated through the evaluation of fluorescence changes of safranine (5 μM) and was recorded on a spectrofluorometer operating at excitation and emission wavelengths of 495 and 586 nm, with a slit width of 5 nm. Increasing concentrations of AntiOxBENs (2.5-10 μM) were added to the reaction medium (200 mM sucrose, 1 mM KH2PO^4, 10 mM Tris (pH 7.4) and 10 μM EGTA) containing respiratory substrates glutamate/malate (5 mM and 2.5 mM respectively) or succinate (5 mM) and RLM (0.5 mg in 2 mL final volume) and allowed to incubate for a 5 min period prior to initiate the assay, at 25° C. In this assay, safranine (5 μM) and ADP (25 nmol) were used to initiate the assay and to induce depolarization, respectively. Then, 1 μM FCCP was added at the end of all experiments to depolarize mitochondria. Δψ was calculated using a calibration curve obtained when RLM were incubated in a K^+-free reaction medium containing 200 mM sucrose, 1 mM NaH2PO4, 10 mM Tris (pH 7.4) and 10 μM EGTA, supplemented with 0.4 μg valinomicin. […] “Repolarization” corresponded to the recovery of membrane potential after the complete phosphorylation of ADP added. Lag phase reflected the time required to phosphorylate the added ADP. Isolated RLM developed a Δψ≈226 mV and Δψ≈202 mV (negative inside) when glutamate/malate or succinate were used, respectively. Data are means±SEM of five independent experiments.

Compound | ADP-induced depolarization (ΔΨ in - mV) ([3]; Glutamate/Malate, 2.5 μM) | Lag Phase ([3]; Glutamate/Malate, 2.5 μM) [s] | Maximum potential (ΔΨ in - mV) ([3]; Glutamate/Malate, 2.5 μM) | Repolarization Potential (ΔΨ in - mV) ([3]; Glutamate/Malate, 2.5 μM) | ADP-induced depolarization (ΔΨ in - mV) ([3]; Glutamate/Malate, 5 μM) | Lag Phase ([3]; Glutamate/Malate, 5 μM) [s] | Maximum potential (ΔΨ in - mV) ([3]; Glutamate/Malate, 5 μM) | Repolarization Potential (ΔΨ in - mV) ([3]; Glutamate/Malate, 5 μM) | ADP-induced depolarization (ΔΨ in - mV) ([3]; Glutamate/Malate, 10 μM) | Lag Phase ([3]; Glutamate/Malate, 10 μM) [s] | Maximum potential (ΔΨ in - mV) ([3]; Glutamate/Malate, 10 μM) | Repolarization Potential (ΔΨ in - mV) ([3]; Glutamate/Malate, 10 μM) | ADP-induced depolarization (ΔΨ in - mV) ([3]; Succinate, 2.5 μM) | Lag Phase ([3]; Succinate, 2.5 μM) [s] | Maximum potential (ΔΨ in - mV) ([3]; Succinate, 2.5 μM) | Repolarization Potential (ΔΨ in - mV) ([3]; Succinate, 2.5 μM) | ADP-induced depolarization (ΔΨ in - mV) ([3]; Succinate, 5 μM) | Lag Phase ([3]; Succinate, 5 μM) [s] | Maximum potential (ΔΨ in - mV) ([3]; Succinate, 5 μM) | Repolarization Potential (ΔΨ in - mV) ([3]; Succinate, 5 μM) | also measured
O=C(NCCCCCC[P+](c1ccccc1)(c1ccccc1)c1ccccc1)c1cc(O)c(O)c(O)c1.[Br-] [AntiOxBEN2, 6-(3,4,5-trihydroxybenzamido)hexyltriphenylphosphonium bromide] | 200.5 ± 17.5 - mV | 124.7 ± 19.2 | 217.8 ± 18.8 - mV | 216.8 ± 17.9 - mV | 194.9 ± 15.6 - mV | 147.5 ± 31.2 | 212.2 ± 19.8 - mV | 209.0 ± 17.8 - mV | 200.1 ± 18.2 - mV | 146.2 ± 30.9 | 209.5 ± 19.1 - mV | 208.4 ± 18.6 - mV | 184.5 ± 19.2 - mV | 115.4 ± 21.0 | 197.6 ± 18.2 - mV | 193.6 ± 17.8 - mV | 191.2 ± 17.8 - mV | 118.0 ± 26.4 | 204.6 ± 18.1 - mV | 200.4 ± 17.0 - mV | transfer potential (Etr) [1]: 0.495 V; Ep (redox potential) ([2]; listed as MitoBEN2): 0.168 V; ADP-induced depolarization (ΔΨ in - mV) ([3]; Succinate, 10 μM): 190.9 ± 16.8 - mV; Lag Phase ([3]; Succinate, 10 μM): 124.8 ± 37.2 s; Maximum potential (ΔΨ in - mV) ([3]; Succinate, 10 μM): 199.8 ± 16.0 - mV; Repolarization Potential (ΔΨ in - mV) ([3]; Succinate, 10 μM): 198.6 ± 17.2 - mV
O=C(CCCCC[P+](c1ccccc1)(c1ccccc1)c1ccccc1)NCCCCCCNC(=O)c1cc(O)c(O)c(O)c1.[Br-] [AntiOxBEN3, [5-(6-(3,4,5-trihydroxybenzamido)hexylamino)carbonylpentyl]triphenylphosphonium bromide] | 202.9 ± 18.7 - mV | 137.5 ± 20.3 | 221.1 ± 20.2 - mV | 217.0 ± 17.7 - mV | 204.5 ± 21.6 - mV | 154.5 ± 21.5 | 221.4 ± 22.6 - mV | 216.4 ± 21.3 - mV | 216.4 ± 25.3 - mV | 143.0 ± 21.7 | 227.5 ± 26.3 - mV | 222.9 ± 25.4 - mV | 188.0 ± 19.7 - mV | 132.6 ± 22.7 | 203.6 ± 16.6 - mV | 198.4 ± 18.4 - mV | 191.1 ± 20.0 - mV | 119.8 ± 32.2 | 205.3 ± 19.4 - mV | 199.1 ± 19.2 - mV | Ep (redox potential) ([2]; listed as MitoBEN3): 0.164 V; ADP-induced depolarization (ΔΨ in - mV) ([3]; Succinate, 10 μM): 198.2 ± 19.3 - mV; Lag Phase ([3]; Succinate, 10 μM): 114.4 ± 24.3 s; Maximum potential (ΔΨ in - mV) ([3]; Succinate, 10 μM): 207.9 ± 19.3 - mV; Repolarization Potential (ΔΨ in - mV) ([3]; Succinate, 10 μM): 207.5 ± 19.4 - mV
O=C(NCCCCCC[P+](c1ccccc1)(c1ccccc1)c1ccccc1)c1ccc(O)c(O)c1.[Br-] [AntiOxBEN1, 6-(3,4-dihydroxybenzamido)hexyltriphenylphosphonium bromide] | 199.5 ± 16.6 - mV | 131.8 ± 18.9 | 216.8 ± 18.9 - mV | 212.3 ± 18.2 - mV | 209.4 ± 20.3 - mV | 137.8 ± 22.5 | 224.8 ± 24.7 - mV | 219.0 ± 22.9 - mV | 192.6 ± 15.0 - mV | 148.7 ± 48.4 | 200.4 ± 16.0 - mV | 199.4 ± 17.1 - mV | 180.3 ± 17.1 - mV | 120.0 ± 32.1 | 191.4 ± 18.2 - mV | 190.3 ± 17.4 - mV | 175.4 ± 12.9 - mV | 93.6 ± 29.2 | 184.9 ± 13.1 - mV | 181.0 ± 13.5 - mV | transfer potential (Etr) [1]: 0.405 V; Ep (redox potential) [2]: 0.224 V; ADP-induced depolarization (ΔΨ in - mV) ([3]; Succinate, 10 μM): 182.4 ± 14.4 - mV; Lag Phase ([3]; Succinate, 10 μM): 105.0 ± 28.1 s; Maximum potential (ΔΨ in - mV) ([3]; Succinate, 10 μM): 188.9 ± 14.8 - mV; Repolarization Potential (ΔΨ in - mV) ([3]; Succinate, 10 μM): 188.8 ± 15.8 - mV
